Experimental data: EP3262036B1, “THERAPEUTIC PYRIDAZINE COMPOUNDS AND USES THEREOF” (priority 2015, dated 2016)
Where a name gives a salt, the structure may show the parent alone.

The compounds below were run against BRG1 (Homo sapiens, UniProt P51532) (assay: biochemical). Settings: BRG1 HTRF IC50 (µM).
Sequence of BRG1 (P51532 1448-1575): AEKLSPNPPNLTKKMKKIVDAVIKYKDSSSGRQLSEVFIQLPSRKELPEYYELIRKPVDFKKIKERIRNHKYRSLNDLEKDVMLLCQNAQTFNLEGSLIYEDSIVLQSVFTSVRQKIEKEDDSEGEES
Format: binding
Excerpt: IC50 measurements for inhibitors using BRG1 TR-FRET Binding Assay
With `C[C@@H](C(=O)N(C)C)n1cc(-c2cc(-c3ccccc3O)nnc2N)cn1` [Example 196, 2-(4-(3-Amino-6-(2-hvdroxyphenyl)pyridazin-4-vl)-1H-pvrazol-1-yl)-N,N-dimethylpropanamide] the IC50 was 0.0247 µM. Compound `CC(=O)N1[C@H](C)CN(c2cc(-c3ccccc3O)nnc2N)C[C@H]1C` [Example 128, 1-((2R,6R)-4-(3-amino-6-(2-hydroxyphenyl)pyridazin-4-yl)-2,6-dimethylpiperazin-1-yl)ethan-1-one] has an IC50 of 0.505 µM. For `C[C@H]1CN(c2cc(-c3ccccc3O)nnc2N)CCN1C(=O)[C@@H]1CCCO1` [Example 142, ((S)-4-(3-amino-6-(2-hydroxyphenyl)pyridazin-4-yl)-2-methylpiperazin-1-yl)((S)-tetrahydrofuran-2-yl)methanone], the IC50 was 0.0975 µM. For `Nc1nnc(-c2ccccc2O)cc1N1CC2CCC(C1)N2c1cnccn1` [Example 50, 2-(6-amino-5-(8-(pyrazin-2-yl)-3,8-diazabicyclo[3.2.1]octan-3-yl)pyridazin-3-yl)phenol], the IC50 was 0.0106 µM. `Nc1nnc(-c2ccccc2O)cc1OC1CCCCC1` [Example 179, 2-(6-amino-5-(cyclohexyloxy)pyridazin-3-yl)phenol] was tested, and the IC50 was 0.0451 µM. `COCCS(=O)(=O)N1CCN(c2cc(-c3ccccc3O)nnc2N)C[C@H]1C` [Example 117, (R)-2-(6-amino-5-(4-((2-methoxyethyl)sulfonyl)-3-methylpiperazin-1-yl)pyridazin-3-yl)phenol] gave an IC50 of 0.0535 µM. With `CC1CN(c2cc(-c3ccccc3O)nnc2N)CC(C)N1Cc1ccccc1` (centres unmarked) [Example 37, 2-(6-amino-5-(4-benzyl-3,5-dimethylpiperazin-1 - yl)pyridazin-3-yl)phenol] the IC50 was 0.102 µM. For `Nc1nnc(-c2ccccc2O)cc1C1CCNC1` (centres unmarked) [Example 215, 2-(6-amino-5-(pyrrolidin-3-yl)pyridazin-3-yl)phenol hydrochloride], the IC50 was 0.743 µM. In the case of `CN1CCOC2(CCN(c3cc(-c4ccccc4O)nnc3N)CC2)C1` [Example 25, 2-(6-amino-5-(4-methyl-1-oxa-4,9-diazaspiro[5.5]undecan-9-yl)pyridazin-3-yl)phenol], the IC50 is reported as 0.0176 µM. In the case of `C[C@H](Oc1cc(-c2ccccc2O)nnc1N)c1cccnc1` [Example 167, (S)-2-(6-amino-5-(1-(pyridin-3-yl)ethoxy)pyridazin-3-yl)phenol], the IC50 is reported as 0.0251 µM. With `Nc1nnc(-c2ccccc2O)cc1N1CCN(Cc2n[nH]c3ccccc23)CC1` [Example 102, 2-[6-amino-5-[4-(1H-indazol-3-ylmethyl)piperazin-1-yl]pyridazin-3-yl]phenol] the IC50 was 0.0259 µM. Work on `CC1CN(c2cc(-c3ccccc3O)nnc2N)CCN1C(=O)c1cncs1` (centres unmarked) [Example 138, (4-(3-amino-6-(2-hydroxyphenyl)pyridazin-4-yl)-2-methylpiperazin-1-yl)(thiazol-5-yl)methanone] yielded an IC50 of 0.0126 µM. Work on `CC1CN(c2cc(-c3ccccc3O)nnc2N)CCN1C(=O)C1CC1c1ccccc1` (centres unmarked) [Example 124, (4-(3-amino-6-(2-hydroxyphenyl)pyridazin-4-yl)-2-methylpiperazin-1-yl)(2-phenylcyclopropyl)methanone] yielded an IC50 of 0.0258 µM. Work on `Nc1nnc(-c2ccccc2O)cc1N1CCNC(=O)C1` [Example 53, 4-(3-amino-6-(2-hydroxyphenyl)pyridazin-4-yl)piperazin-2-one] yielded an IC50 of 0.316 µM. For `Cc1noc(C)c1C(=O)N1CCN(c2cc(-c3ccccc3O)nnc2N)CC1C` (centres unmarked) [Example 123, (4-(3-amino-6-(2-hydroxyphenyl)pyridazin-4-yl)-2-methylpiperazin-1-yl)(3,5-dimethylisoxazol-4-yl)methanone], the IC50 was 0.0879 µM. `Cn1cc(N2CCN(c3cc(-c4ccccc4O)nnc3N)CC2)cn1` [Example 68, 2-(6-amino-5-(4-(1-methyl-1H-pyrazol-4-yl)piperazin-1-yl)pyridazin-3-yl)phenol] was tested, and the IC50 was 0.0367 µM. In the case of `Nc1nnc(-c2ccccc2O)cc1OC1CCCN(Cc2ccccc2)C1` (centres unmarked) [Example 181, 2-(6-amino-5-((1-benzylpiperidin-3-yl)oxy)pyridazin-3-yl)phenol], the IC50 is reported as 0.0337 µM. `C[C@@H]1CN(c2cc(-c3ccccc3O)nnc2N)CCN1C(=O)c1cccnc1` [Example 156] gave an IC50 of 0.0435 µM. Compound `CC(=O)N1CCCC(Oc2cc(-c3ccccc3O)nnc2N)C1` (centres unmarked) [Example 247, 1-(3-((3-amino-6-(2-hydroxyphenyl)pyridazin-4-yl)oxy)piperidin-1-yl)ethanone] has an IC50 of 0.137 µM. `Cn1ncc2c(CN3CCN(c4cc(-c5ccccc5O)nnc4N)CC3)cccc21` [Example 103, 2-[6-amino-5-[4-[(1-methylindazol-4-yl)methyl]piperazin-1-yl]pyridazin-3-yl]phenol] gave an IC50 of 0.0289 µM. Compound `C[C@H]1CN(c2cc(-c3ccccc3O)nnc2N)C[C@H](C)O1` [Example 244, 2-[6-amino-5-[(2S,6S)-2,6-dimethylmorpholin-4-yl]pyridazin-3-yl]phenol] has an IC50 of 0.0379 µM. `CN1CCC(c2cc(-c3ccccc3O)nnc2N)C1` (centres unmarked) [Example 216, 2-(6-amino-5-(1-methylpyrrolidin-3-yl)pyridazin-3-yl)phenol 2,2,2-trifluoroacetate] gave an IC50 of 0.765 µM. In the case of `CC(C)(O)C(=O)N1CCC(c2cc(-c3ccccc3O)nnc2N)CC1` [Example 229, 1-(4-(3-amino-6-(2-hydroxyphenyl)pyridazin-4-yl)piperidin-1-yl)-2-hydroxy-2-methylpropan-1-one], the IC50 is reported as 0.0437 µM. With `Nc1nnc(-c2ccccc2O)cc1N1CCC2(CC1)C(=O)Nc1ccccc12` [Example 78, 1'-(3-amino-6-(2-hydroxyphenyl)pyridazin-4-yl)spiro[indoline-3,4'-piperidin]-2-one] the IC50 was 0.0758 µM. For `CC(C)(O)C(=O)N1C2CCC1CN(c1cc(-c3ccccc3O)nnc1N)C2` [Example 120, 1-(3-(3-amino-6-(2-hydroxyphenyl)pyridazin-4-yl)-3,8-diazabicyclo[3.2.1]octan-8-yl)-2-hydroxy-2-methylpropan-1-one], the IC50 was 0.0444 µM. Compound `CNC(=O)CN1CCN(c2cc(-c3ccccc3O)nnc2N)C[C@H]1C` [Example 148, (R)-2-(4-(3-amino-6-(2-hydroxyphenyl)pyridazin-4-yl)-2-methylpiperazin-1-yl)-N-methylacetamide] has an IC50 of 0.0613 µM. For `CC1CN(c2cc(-c3ccccc3O)nnc2N)CCN1C(=O)CN(C)C` (centres unmarked) [Example 162, 1-(4-(3-amino-6-(2-hydroxyphenyl)pyridazin-4-yl)-2-methylpiperazin-1-yl)-2-(dimethylamino)ethanone], the IC50 was 0.0586 µM. Work on `Nc1nnc(-c2ccccc2O)cc1OC1CCCN(c2ccccc2)C1` (centres unmarked) [Example 183, 2-(6-amino-5-((1-phenylpiperidin-3-yl)oxy)pyridazin-3-yl)phenol] yielded an IC50 of 0.0172 µM. For `Nc1nnc(-c2ccccc2O)cc1N1CCN(Cc2ccccc2)CC1` [Example 12, 2-(6-amino-5-(4-benzylpiperazin-1-yl)pyridazin-3-yl)phenol], the IC50 was 0.0612 µM. Work on `C[C@H]1CN(c2cc(-c3ccccc3O)nnc2N)CCN1Cc1nccn1C` [Example 92, (S)-2-(6-amino-5-(3-methyl-4-((1-methyl-1H-imidazol-2-yl)methyl)piperazin-1-yl)pyridazin-3-yl)phenol] yielded an IC50 of 0.0185 µM. `Nc1nnc(-c2ccccc2O)cc1N1CCN(S(=O)(=O)c2ccccc2)CC1` [Example 11, 2-(6-amino-5-(4-(phenylsulfonyl)piperazin-1-yl)pyridazin-3-yl)phenol] showed an IC50 of 0.0612 µM. In the case of `Cc1ccc(S(=O)(=O)N2CCC(c3cc(-c4ccccc4O)nnc3N)CC2)cc1` [Example 219, 2-(6-amino-5-(1-tosylpiperidin-4-yl)pyridazin-3-yl)phenol], the IC50 is reported as 0.36 µM. Compound `Nc1nnc(-c2ccccc2O)cc1N1C[C@@H]2C[C@H]1CN2Cc1ccccc1` [Example 17, 2-(6-amino-5-((1S,4S)-5-benzyl-2,5-diazabicyclo[2.2.1]heptan-2-yl)pyridazin-3-yl)phenol] has an IC50 of 0.147 µM. Work on `CC(Oc1cc(-c2ccccc2O)nnc1N)C(C)(C)C` (centres unmarked) [Example 164, 2-(6-amino-5-((3,3-dimethylbutan-2-yl)oxy)pyridazin-3-yl)phenol] yielded an IC50 of 0.143 µM. Compound `Nc1nnc(-c2ccccc2O)cc1C1CC1` [Example 190, 2-(6-amino-5-cyclopropylpyridazin-3 - yl)phenol] has an IC50 of 0.0176 µM. `CC(C)(C)OC(=O)N1CCc2cc(CN3CCN(c4cc(-c5ccccc5O)nnc4N)CC3)ccc21` [Example 106, tert-butyl 5-[[4-[3-amino-6-(2-hydroxyphenyl)pyridazin-4-yl]piperazin-1-yl]methyl]indoline-1-carboxylate] gave an IC50 of 0.689 µM. For `CN1CCCC(Oc2cc(-c3ccccc3O)nnc2N)C1` (centres unmarked) [Example 246, 2-(6-amino-5-((1-methylpiperidin-3-yl)oxy)pyridazin-3-yl)phenol], the IC50 was 0.26 µM. `Nc1nnc(-c2ccccc2O)cc1OC1CCN(c2ccccc2)C1` (centres unmarked) [Example 184, 2-(6-amino-5-((1-phenylpyrrolidin-3-yl)oxy)pyridazin-3-yl)phenol] was tested, and the IC50 was 0.192 µM. Work on `CN(C)C(=O)N1C2CCC1CN(c1cc(-c3ccccc3O)nnc1N)C2` [Example 121, 3-(3-amino-6-(2-hydroxyphenyl)pyridazin-4-yl)-N,N-dimethyl-3,8-diazabicyclo[3.2.1]octane-8-carboxamide] yielded an IC50 of 0.0225 µM. With `Nc1nnc(-c2ccccc2O)cc1N1CCC(O)(c2ccccc2)CC1` [Example 42, 1-(3-amino-6-(2-hydroxyphenyl)pyridazin-4-yl)-4-phenylpiperidin-4-ol] the IC50 was 0.0113 µM. With `C[C@@H]1CN(c2cc(-c3ccccc3O)nnc2N)CCN1C(=O)C(C)(C)O` [Example 145, (R)-1-(4-(3-amino-6-(2-hydroxyphenyl)pyridazin-4-yl)-2-methylpiperazin-1-yl)-2-hydroxy-2-methylpropan-1-one] the IC50 was 0.0642 µM. Work on `C[C@@H]1CN(c2cc(-c3ccccc3O)nnc2N)C[C@H](C)O1` [Example 243, 2-[6-amino-5-[(2S,6R)-2,6-dimethylmorpholin-4-yl]pyridazin-3-yl]phenol] yielded an IC50 of 0.0324 µM. Work on `Nc1nnc(-c2ccccc2O)cc1N1CCC(c2ccccc2)C1` (centres unmarked) [Example 55, 2-(6-amino-5-(3-phenylpyrrolidin-1-yl)pyridazin-3-yl)phenol] yielded an IC50 of 0.123 µM. With `CN(CCc1ccccc1)c1cc(-c2ccccc2O)nnc1N` [Example 36, 2-(6-amino-5-(methyl(phenethyl)amino)pyridazin-3-yl)phenol] the IC50 was 0.0962 µM.
